According to US20120156333A1, “STABILIZED BETA CRYPTOXANTHIN-CONTAINING WATER AND THE USE THEREOF” (ARKRAY, INC., priority 2010, published 2012):

Legend:
Format in all cases: physicochemical
[1] = β cryptoxanthin stabilizing test, Example 3B (water from concentrated liquid, varied β cryptoxanthin concentration, stored at 45° C.)
Description: The prepared concentrated liquid derived from Citrus unshiu and water were mixed. Thus, β cryptoxanthin-containing waters were prepared. In the mixing, concentrations of the β cryptoxanthin were set to predetermined parts by mass with respect to 100 parts by mass of a combination of the water and components contained in the water. The predetermined parts by mass were 0.0007, 0.0015, 0.0025, 0.0053, and 0.0072 parts by mass. Thus, five types of β cryptoxanthin-containing waters each having a different concentration of the β cryptoxanthin were prepared. Each of the β cryptoxanthin-containing waters was sufficiently stirred. Thereafter 90 g of the resultant β cryptoxanthin-containing water was filled in an aluminum pouch, which was then sterilized under the condition at 85° C. for 30 minutes.
Five types of the β cryptoxanthin-containing waters of the example were stored at 45° C. for one month. Sampling was conducted on a storage start date and after one month from the storage start date. The respective amounts of β cryptoxanthin in samples were measured by HPLC in the same manner as in Example 1B. Then, assuming that the amount of β cryptoxanthin on the storage start date was 100%, residual ratios of β cryptoxanthin were determined.

[2] = Storage stability at 20° C. and 25° C. calculated by Arrhenius equation, Example 4A; conditions: for possible storage period in the stable state: β cryptoxanthin-containing waters of Example 1A, 2A, and 3A, from storage at 40° C. for 2 months
Description: With respect to each of the β cryptoxanthin-containing waters prepared in Examples 1A, 2A, and 3A, storage stability at 20° C. and 25° C. was determined.
The storage stability was calculated by the following method with reference to the publication below. Conditions were described in the publication, hereby incorporated herein by reference. • Sumie Yoshioka (1995), “Iyakuhin no Anzensei—yoriyoi Kaihatsu to Hyoka notameno Kiso kara Jissai made—(Drug safety—principles and practices for improving development and evaluation—), Nankodo Co., Ltd.
Specifically, a graph of FIG. 185 on page 95 of the publication was cited. FIG. 1 is an Arrhenius plot of degradation of thiamine hydrochloride in a vitamin complex liquid agent, the Y axis indicates log Kobs (day^−1), and the X axis indicates 1/T (K^1). The stable periods were calculated based on the activation energy for degradation of thiamine hydrochloride in the vitamin complex liquid agent, shown in the graph.
In FIG. 1, the Y axis is indicated by not ln, but log. Therefore log Kobs was converted into ln k.
Then, −Ea/R and ln A were calculated from the ln k and 1/T (K^−1) on the X axis of FIG. 1 based on the Arrhenius equation represented by the formula (1) below.

[3] = β cryptoxanthin stabilizing test, Example 1A (water from Citrus unshiu paste with additive L-ascorbic acid, stored at 40° C.); conditions: 0.002 parts by mass β cryptoxanthin (paste) in water
Description: The prepared paste derived from Citrus unshiu and water were mixed. Thus, a mixed solution was prepared. The mixing was conducted so that a mass ratio between β cryptoxanthin contained in the paste and the mixed water became 1 mg:50 g (0.002 parts by mass of β cryptoxanthin with respect to 100 parts by mass of finally obtained β cryptoxanthin-containing water). Vitamin C (L-ascorbic acid) was added to the mixed solution, which was then mixed by stirring. Thus, β cryptoxanthin-containing waters were prepared. The total amounts of L-ascorbic acid in the respective β cryptoxanthin-containing waters were set to 0.005, 0.01, 0.02, 0.05, 0.1, and 0.2 parts by mass with respect to 100 parts by mass of entire β cryptoxanthin-containing water by adding vitamin C. As a blank, a β cryptoxanthin-containing water was prepared in the same manner as described above except that vitamin C (L-ascorbic acid) was not added to the mixed solution. 50 g of six types of the β cryptoxanthin-containing waters and 50 g of the f3-cryptoxanthin-containing water as a blank were filled in the respective brown bottles. Thereafter, the brown bottles were subjected to a heat sterilization treatment under the condition at 90° C. for 30 minutes, which were then stored at 40° C. Sampling was conducted on a storage start date, after one month from the storage start date, and after two months from the same. The respective amounts of β cryptoxanthin in samples were measured by HPLC as shown below. Then, assuming that the amount of β cryptoxanthin on the storage start date was 100%, residual ratios of β cryptoxanthin were determined. The samples were treated at 70° C. for 30 minutes under alkaline conditions before being subjected to HPLC. By this treatment, β cryptoxanthin in the samples was saponified and was converted to a free form. After the treatment, the samples were subjected to a liquid-liquid extraction and were then concentrated. Thus, samples for HPLC were obtained. In the measurements of the amounts of β cryptoxanthin by HPLC, a HPLC system to which a column (J'sphere ODS-M80 (product name) with 250×4.6 mm I.D, produced by YMC Co., Ltd.) had been connected was used, and absorbances at 455 nm were measured by a UV detector ([…] (product name), produced by Hitachi Ltd.). Conditions of the column were as follows. • Mobile phase: acetonitrile/tetrahydrofuran (volume ratio: 95/5) containing 0.1% acetic acid and 50 ppm of α-tocopherol • Flow rate: 1.0 mL/minute • Column temperature: 55° C.

[4] = β cryptoxanthin stabilizing test, Example 3A (water from Citrus unshiu concentrated liquid with additive L-ascorbic acid, stored at 40° C.); conditions: 0.0015 parts by mass β cryptoxanthin (concentrated liquid) in water
Description: The prepared concentrated liquid derived from Citrus unshiu and water were mixed. Thus, a mixed solution was prepared. The mixing was conducted so that a mass ratio between β cryptoxanthin contained in the concentrated liquid and the mixed water became […] (0.0015 parts by mass of β cryptoxanthin with respect to 100 parts by mass of finally obtained β cryptoxanthin-containing water). Vitamin C (L-ascorbic acid) was added to the mixed solution, which was then mixed by stirring. Thus, β cryptoxanthin-containing waters were prepared. The total amounts of L-ascorbic acid in the respective β cryptoxanthin-containing waters were set to 0.005, 0.01, 0.02, 0.1, and 0.2 parts by mass with respect to 100 parts by mass of entire β cryptoxanthin-containing water by adding vitamin C. 50 g of five types of the β cryptoxanthin-containing waters were filled in the respective brown bottles. Thereafter, the brown bottles were subjected to a heat sterilization treatment under the condition at 90° C. for 30 minutes, which were then stored at 40° C. Sampling was conducted on a storage start date and after two months from the same. The respective amounts of β cryptoxanthin in samples were measured in the same manner as in Example 1A. Then, assuming that the amount of β cryptoxanthin on the storage start date was 100%, residual ratios of β cryptoxanthin were determined.

[5] = additive L-ascorbic acid 0 parts by mass (blank)
[6] = additive L-ascorbic acid 0.005 parts by mass
[7] = additive L-ascorbic acid 0.01 parts by mass
[8] = additive L-ascorbic acid 0.02 parts by mass
[9] = additive L-ascorbic acid 0.05 parts by mass
[10] = additive L-ascorbic acid 0.1 parts by mass
[11] = additive L-ascorbic acid 0.2 parts by mass

## CC1=C(/C=C/C(C)=C/C=C/C(C)=C/C=C/C=C(C)/C=C/C=C(C)/C=C/C2=C(C)C[C@@H](O)CC2(C)C)C(C)(C)CCC1 [β cryptoxanthin]
[1]; β cryptoxanthin 0.0007 parts by mass (concentrated liquid) in water
  Residual ratio of β cryptoxanthin Storage for one month (%): 42.6%
[1]; β cryptoxanthin 0.0015 parts by mass (concentrated liquid) in water
  Residual ratio of β cryptoxanthin Storage for one month (%): 78.0%
[1]; β cryptoxanthin 0.0025 parts by mass (concentrated liquid) in water
  Residual ratio of β cryptoxanthin Storage for one month (%): 95.8%
[1]; β cryptoxanthin 0.0053 parts by mass (concentrated liquid) in water
  Residual ratio of β cryptoxanthin Storage for one month (%): 96.6%
[1]; β cryptoxanthin 0.0072 parts by mass (concentrated liquid) in water
  Residual ratio of β cryptoxanthin Storage for one month (%): 100.8%
[2]; Example 4A, normal temperature (20° C. to 25° C.)
  storage in a stable state at normal temperature: two years or more
[2]; 20° C.
  possible storage period in the stable state: about 34 months
[2]; 25° C.
  possible storage period in the stable state: about 16.2 months
[3]; [5]
  Residual ratio of β cryptoxanthin Storage for one month (%): 76.9%
  Residual ratio of β cryptoxanthin Storage for two months (%): 29.9%
[3]; [6]
  Residual ratio of β cryptoxanthin Storage for one month (%): 83.8%
  Residual ratio of β cryptoxanthin Storage for two months (%): 48.8%
[3]; [7]
  Residual ratio of β cryptoxanthin Storage for one month (%): 96.7%
  Residual ratio of β cryptoxanthin Storage for two months (%): 78.9%
[3]; [8]
  Residual ratio of β cryptoxanthin Storage for one month (%): 100%
  Residual ratio of β cryptoxanthin Storage for two months (%): 100%
[3]; [9]
  Residual ratio of β cryptoxanthin Storage for one month (%): 98.0%
  Residual ratio of β cryptoxanthin Storage for two months (%): 99.0%
[3]; [10]
  Residual ratio of β cryptoxanthin Storage for one month (%): 94.4%
  Residual ratio of β cryptoxanthin Storage for two months (%): 94.7%
[3]; [11]
  Residual ratio of β cryptoxanthin Storage for one month (%): 68.3%
  Residual ratio of β cryptoxanthin Storage for two months (%): 31.3%
[4]; [6]
  Residual ratio of β cryptoxanthin Storage for two months (%): 64.3%
[4]; [7]
  Residual ratio of β cryptoxanthin Storage for two months (%): 64.9%
[4]; [8]
  Residual ratio of β cryptoxanthin Storage for two months (%): 99.1%
[4]; [10]
  Residual ratio of β cryptoxanthin Storage for two months (%): 100%
[4]; [11]
  Residual ratio of β cryptoxanthin Storage for two months (%): 37.9%
